In patent US12473287B2, “Synthetic co-crystals of anhydrous guanine and process for preparing the same” (EcoCrystal Ltd., priority 2016, dated 2025):
Where “and” joins values, the source holds several entries; their conditions need not be identical. Equal entries are not always repeated.

Legend:
[1] = in the reflected direction; known values; cited from earlier work
[2] = Dry storage stability at ambient conditions (FT-IR); format: physicochemical; conditions: stored dry at ambient conditions; FT-IR fresh vs 3 months old
Description: FIG. 5 presents FT-IR spectra, showing fresh guanine monohydrate (top) vs 3 months old guanine monohydrate. Only small differences in the peak intensities are visible after 3 months. The typical signatures of structured water are still present (ν1, and ν3 stretching modes (broad peaks at 3420 and 3200 cm^−1) and ν2 bending mode (1596 cm^−1)).

For `Nc1nc2nc[nH]c2c(=O)[nH]1` [Anhydrous guanine, guanine], the refractive index n [1] is listed as 1.83 and 1.81.
With `Nc1nc2nc[nH]c2c(=O)[nH]1.O` [guanine monohydrate] the “stability, solid to solid transformation” value [2] was “stable for at least several months”.
